Values quoted from earlier work as cited in patent US20240299501A1, “COMPOSITION AND METHODS OF TREATMENT USING TRANSDERMAL HORMONE SUPPLEMENTATION” (Xygenyx Inc., priority 2023, published 2024).

Tests used:
[1] = test system: wide dynamic range neurons in the ventroposterolateral nucleus of the thalamus; details: stated as 'is believed'
[2] = in the human body
[3] = single penetration enhancer

In the case of `CCCCCc1cc(O)c2c(c1)OC(C)(C)C1CCC(C)=CC21` (stereo not shown) [THC, Δ-9-tetrahydrocannabinol], the “potency relative to morphine in mediating pain” value [1] is listed as “ten times more powerful than morphine”.

In the case of “HGH: hormone comprising a peptide chain that is synthesized in the pituitary gland”, the biological half-life [2] is given as 10-20 minutes.

For `CC12CCC(CC1)C(C)(C)O2` [eucalyptol, 1,8-epoxy-p-menthane], the “increase of drug uptake via the transdermal route (factor)” value [3] is given as “more than 10”.

In the case of `CC(C)[C@@H]1CC[C@@H](C)C[C@H]1O` [Menthol], the “increase of drug uptake via the transdermal route (factor)” value [3] is listed as ≥ 10.
